The values that follow come from patent US7601687B2, “Mechanism for identifying drugs for the treatment of type II diabetes” (BioCrine AB, priority 2006, dated 2009).

The test system of this test is rat insulin-I gene promoter. The experiment in a line: On-line monitoring of insulin promoter-driven DsRed/GFP expression (prIns1.DsRed) in transfected HIT-T15 cells and islet cells. The test is classed as cell-based, hamster (HIT-T15), rat (islet cells). To be noted: for effect of inhibitor on insulin-stimulated insulin gene transcription / insulin promoter activity: 25 μM LY294002, 10 nM rapamycin, 400 nM AC, 100 μM HNMPA-(AM)3. An excerpt:
Construction of prIns1.GFP has been described earlier (Leibiger et al., 1998a). Vector prIns1.DsRed was generated by exchanging the EGFP-expression cassette versus the DsRed-expression cassette obtained from pDsRed1-1 (Clontech). Plasmid prβGK.GFP (i.e. prβGK-278.GFP) was generated by exchanging the CAT-SV40pA-expression cassette of prβGK-278.CAT (Leibiger et al., 1994a) versus the EGFP-bGHpA-expression cassette obtained from pRcCMVI.GFP (Moede et al., 1999). […] All vector constructions were verified by DNA sequence analysis. Constructs for expression of the human Insulin Receptor A and B types, pCMVHIR(A) and pCMVHIR(B) and the control plasmid pCMVstop were kindly provided by Dr. A. Ullrich (Max-Planck-Institute for Biochemistry, Martinsried, Germany). Expression constructs pCMV5.PKBα, pCMV5.PKBαΔ308/437, pCMV5.PDK1 and pCMV5.PDK1-antisense were kindly provided by Drs. P. Cohen and D. R. Alessi (MRC Phosphorylation Unit, University of Dundee, UK).
Insulin-producing HIT-T15 cells were obtained from ATCC. HIT cells were reported to show glucose responsiveness at subphysiological concentrations between 0.1 and 2 mM (Sharma et al., 1995). HIT cells were grown in RPMI 1640 medium supplemented with 100 units/ml penicillin, 100 μg/ml streptomycin, 2 mM glutamine and 10% fetal calf serum at 5% CO2 and 37° C. Pancreatic islets were isolated from normally fed male Wistar rats and from mice by collagenase digestion. Isolated islets were incubated overnight at 5% CO2 and 37° C. in RPMI 1640 medium, supplemented as described above. Transfection of HIT-T15 and islet cells was performed overnight by the lipofectamine technique in RPMI 1640 medium, without serum and antibiotics. For on-line monitoring, cells were grown and transfected on 24-mm glass coverslips. Following transfection, HIT cells were cultured for 12-18 h in RPMI 1640 medium containing 0.1 mM glucose, 10% fetal calf serum and supplemented as above. Before stimulation, islets and islet cells were incubated for 2 h in RPMI 1640 medium, supplemented as above but containing 3 mM glucose. All expression constructs were prepared using the Qiagen Plasmid Maxi Kit (Qiagen), except those used to produce the adenoviruses which where purified by ultracentrifugation via a CsCI-gradient (as described in Sambrook et al, 1989).
All experiments were performed in RPMI 1640 medium, supplemented as above. Protein kinase inhibitors, antibodies or nifedipine were added to the culture medium 30 min prior to stimulation and were kept in the medium throughout stimulation. After stimulation islets, islet cells and HIT cells were cultured further at substimulatory glucose concentrations (0.1 mM for HIT cells and 3 mM for islets and islet cells). For RNA-analysis, islets and cells were harvested 60 min after start of stimulation, if not indicated otherwise. For analysis of protein kinase activities or tyrosine phosphorylation, cells were harvested immediately following stimulation.
Detection of fluorescence by digital imaging fluorescence microscopy was performed as described previously (Leibiger et al., 1998a; Leibiger et al., 1998b). Briefly, transfected cells were grown on 24-mm glass coverslips. After stimulation the coverslips were placed into a perifusion chamber which was mounted on an inverted microscope (Zeiss Axiovert 135TV). Temperature was kept at 37° C. and the cells were perfused with RPMI 1640 medium. The objective lens used was a Zeiss-Fluar ×40/1.30 oil Imm Korr. Fluorescence imaging was performed with a cooled charged-coupled device camera (CH250 with KAF 1400, Photometrics, Tucson, Ariz.) connected to an imaging system (Inovision) with fluorescence excitation from a SPEX fluorolog-2 CM1T11I spectrofluorometer (Spex Industries). The following filter-settings were used: for GFPs65T: excitation at 485 nm, a 505 nm dicroic mirror and an emission band-pass filter of 500-530 nm; for DsRed: excitation at 558 nm, a 565 nm dicroic mirror and a 580 nm long-pass filter for emission […]

Take “autocamtide-2 related inhibitory peptide”: the “effect of inhibitor on insulin-stimulated insulin gene transcription / insulin promoter activity” value (5 mU/ml insulin) is reported as “abolished”.
Regarding `CC(=O)OCOC(c1ccc2ccccc2c1)P(=O)(OCOC(C)=O)OCOC(C)=O` (stereo not shown) [HNMPA-(AM)3], the “effect of inhibitor on insulin-stimulated insulin gene transcription / insulin promoter activity” value (5 mU/ml insulin) was “abolished”.
On to insulin, for which, where the note is “5 mU/ml insulin, co-transfected cells”, the “insulin promoter-driven DsRed fluorescence upon insulin stimulation” value is given as “elevation”. In addition, the “amount of exogenous insulin necessary to trigger insulin gene promoter activity” value (transfected HIT-T15 cells, supplemented culture medium (FIG. 4B)) is listed as 5-10 μU insulin per ml.
